Where “and” joins values, the source holds several entries; their conditions need not be identical. Equal entries are not always repeated. Toxic doses and inconclusive results are not listed. No stated cut-off is given here; in the data, active means T/C of 150% or more; inactive means T/C below 125%.
Test system: L1210 leukemia ip in BDF1 mice, survival T/C
Assay: NCI In Vivo Anticancer Drug Screen. Data for tumor model L1210 Leukemia (intraperitoneal) in B6D2F1 (BDF1) mice
Settings: endpoint: mean survival time, higher = longer survival
Procedure, shortened: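 Value reflects the ratio of survival in compound-treated mice to survival in vehicle-treated controls, with both groups carrying the same transplanted tumor.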

[1] = dose: 100.0 mg/kg/injection, schedule: Q01DX009 (ip), vehicle: Klucel (hydroxypropylcellulose) (HPC)
[2] = dose: 200.0 mg/kg/injection, schedule: Q01DX009 (ip), vehicle: Klucel (hydroxypropylcellulose) (HPC)
[3] = dose: 400.0 mg/kg/injection, schedule: Q01DX009 (ip), vehicle: Klucel (hydroxypropylcellulose) (HPC)

Measured: T/C

CCCCSSC(Cl)(Cl)Cl
inactive: dose: 6.25 mg/kg/injection, schedule: Q01DX009 (ip), vehicle: carboxymethylcellulose (CMC) 96 % of control and 104 % of control | dose: 12.5 mg/kg/injection, schedule: Q01DX001 (ip), vehicle: carboxymethylcellulose (CMC) 98 % of control | dose: 12.5 mg/kg/injection, schedule: Q01DX009 (ip), vehicle: carboxymethylcellulose (CMC) 101 % of control and 89 % of control | dose: 12.5 mg/kg/injection, schedule: Q04DX003 (ip), vehicle: carboxymethylcellulose (CMC) 96 % of control | dose: 25.0 mg/kg/injection, schedule: Q01DX001 (ip), vehicle: carboxymethylcellulose (CMC) 95 % of control | dose: 25.0 mg/kg/injection, schedule: Q01DX009 (ip), vehicle: carboxymethylcellulose (CMC) 96 % of control | dose: 25.0 mg/kg/injection, schedule: Q04DX002 (ip), vehicle: carboxymethylcellulose (CMC) 95 % of control and 107 % of control | dose: 25.0 mg/kg/injection, schedule: Q04DX003 (ip), vehicle: carboxymethylcellulose (CMC) 96 % of control | dose: 50.0 mg/kg/injection, schedule: Q01DX001 (ip), vehicle: carboxymethylcellulose (CMC) 88 % of control | dose: 50.0 mg/kg/injection, schedule: Q04DX002 (ip), vehicle: carboxymethylcellulose (CMC) 95 % of control and 101 % of control | dose: 50.0 mg/kg/injection, schedule: Q04DX003 (ip), vehicle: carboxymethylcellulose (CMC) 103 % of control and 91 % of control | dose: 200.0 mg/kg/injection, schedule: Q04DX002 (ip), vehicle: carboxymethylcellulose (CMC) 86 % of control

N#Cc1nc2ccccc2nc1C#N
inactive: dose: 12.5 mg/kg/injection, schedule: Q01DX009 (ip), vehicle: Klucel (hydroxypropylcellulose) (HPC) 102 % of control | dose: 12.5 mg/kg/injection, schedule: Q04DX003 (ip), vehicle: Klucel (hydroxypropylcellulose) (HPC) 97 % of control | dose: 25.0 mg/kg/injection, schedule: Q01DX009 (ip), vehicle: Klucel (hydroxypropylcellulose) (HPC) 102 % of control | dose: 25.0 mg/kg/injection, schedule: Q04DX003 (ip), vehicle: Klucel (hydroxypropylcellulose) (HPC) 88 % of control

CCCCOC(OCCCC)C(C)=O
inactive: [1] 96 % of control | dose: 100.0 mg/kg/injection, schedule: Q04DX003 (ip), vehicle: Klucel (hydroxypropylcellulose) (HPC) 113 % of control | [2] 96 % of control | dose: 200.0 mg/kg/injection, schedule: Q04DX003 (ip), vehicle: Klucel (hydroxypropylcellulose) (HPC) 92 % of control | [3] 101 % of control | dose: 400.0 mg/kg/injection, schedule: Q04DX003 (ip), vehicle: Klucel (hydroxypropylcellulose) (HPC) 102 % of control

CCOC(=O)C1CC(C(=O)OCC)C(=O)C1=O (stereo not drawn)
inactive: dose: 100.0 mg/kg/injection, schedule: Q04DX003 (ip), vehicle: saline with Tween-80 100 % of control | dose: 200.0 mg/kg/injection, schedule: Q04DX003 (ip), vehicle: saline with Tween-80 99 % of control | dose: 400.0 mg/kg/injection, schedule: Q04DX003 (ip), vehicle: saline with Tween-80 86 % of control

COc1cccc(/C=N\O)c1
inactive: dose: 50.0 mg/kg/injection, schedule: Q01DX009 (ip), vehicle: saline 98 % of control | dose: 50.0 mg/kg/injection, schedule: Q04DX003 (ip), vehicle: saline 95 % of control | dose: 100.0 mg/kg/injection, schedule: Q01DX009 (ip), vehicle: saline 100 % of control | dose: 100.0 mg/kg/injection, schedule: Q04DX003 (ip), vehicle: saline 95 % of control | dose: 200.0 mg/kg/injection, schedule: Q01DX009 (ip), vehicle: saline 96 % of control | dose: 200.0 mg/kg/injection, schedule: Q04DX003 (ip), vehicle: saline 101 % of control | dose: 400.0 mg/kg/injection, schedule: Q01DX009 (ip), vehicle: saline 95 % of control | dose: 400.0 mg/kg/injection, schedule: Q04DX003 (ip), vehicle: saline 95 % of control

O=NN(CCCl)C(=O)C1CCCCC1
inactive: dose: 4.5 mg/kg/injection, schedule: Q01DX001 (ip), vehicle: carboxymethylcellulose (CMC) 110 % of control | dose: 9.0 mg/kg/injection, schedule: Q01DX001 (ip), vehicle: carboxymethylcellulose (CMC) 112 % of control | dose: 18.0 mg/kg/injection, schedule: Q01DX001 (ip), vehicle: carboxymethylcellulose (CMC) 113 % of control | dose: 26.0 mg/kg/injection, schedule: Q01DX001 (ip), vehicle: carboxymethylcellulose (CMC) 112 % of control | dose: 40.0 mg/kg/injection, schedule: Q01DX001 (ip), vehicle: carboxymethylcellulose (CMC) 108 % of control | dose: 60.0 mg/kg/injection, schedule: Q01DX001 (ip), vehicle: carboxymethylcellulose (CMC) 110 % of control | dose: 93.0 mg/kg/injection, schedule: Q01DX001 (ip), vehicle: carboxymethylcellulose (CMC) 113 % of control | dose: 187.0 mg/kg/injection, schedule: Q01DX001 (ip), vehicle: carboxymethylcellulose (CMC) 116 % of control

CC1CN=C(c2ccc(NC(=O)NCCCCCCCCCNC(=O)Nc3ccc(C4=NCC(C)N4)cc3)cc2)N1 (stereo not drawn)
inactive: dose: 6.5 mg/kg/injection, schedule: Q01DX Z (ip), vehicle: carboxymethylcellulose (CMC) 86 % of control | dose: 13.0 mg/kg/injection, schedule: Q01DX Z (ip), vehicle: carboxymethylcellulose (CMC) 100 % of control | dose: 26.0 mg/kg/injection, schedule: Q01DX Z (ip), vehicle: carboxymethylcellulose (CMC) 106 % of control | dose: 52.0 mg/kg/injection, schedule: Q01DX Z (ip), vehicle: carboxymethylcellulose (CMC) 107 % of control

O=C(/C=C/c1ccccc1[N+](=O)[O-])c1ccccc1
inactive: [1] 97 % of control | [2] 101 % of control | [3] 98 % of control

Reference: PubChem BioAssay AID248 (DTP/NCI, 2004)
